# Source: patent publication US11932606B2, “Anti-cancer/anti-fibrosis compounds” (THE REGENTS OF THE UNIVERSITY OF CALIFORNIA, priority 2017, dated 2024)
# Legend:
# CSNK2A1 (CK2 alpha 1) = CSNK2A1 (CK2 alpha 1) (Homo sapiens (Human), UniProt P68400); test: CK2 alpha 1 enzymatic activity inhibition (Z'-LYTE); assay type: biochemical; conditions: read-out: CK2a IC50
# Method: CK2 Alpha 1 Enzymatic Activity Inhibition: Determination of IC50 Values for Selected Compounds
# The half maximal inhibitory concentration (IC50) with respect to CK2 alpha 1 inhibition was determined for the compounds of the invention by using Z′-LYTE™ from ThermoFisher Scientific's SelectScreen™ Biochemical Kinase Profiling Service (Waltham, MA). Compounds were screened in 1% DMSO (final) in the well. For 10 point titrations, 3-fold serial dilutions were conducted from the starting concentration. The 2×CSNK2A1 (CK2 alpha 1)/Ser/Thr 11 mixture is prepared in 50 mM HEPES pH 7.5, 0.01% BRIJ-35, 10 mM MgCl2, 1 mM EGTA. The black 384-well plate (Corning Cat. #4514) were used for the assay. 100 nL of 100× test compound in 100% DMSO, 2.4 uL of kinase buffer (50 mM HEPES pH 7.5, 0.01% BRIJ-35, 10 mM MgCl2, 1 mM EGTA), 5 uL of 2×CSNK2A1 (CK2 alpha 1)/Ser/Thr 11 mixture, and 2.5 uL of 4×ATP solution were mixed and agitated for 30 seconds. Then the Kinase Reaction was incubated at room temperature for 60 minutes. The final 10 uL Kinase Reaction consisted of 0.68-25.7 ng CSNK2A1 (CK2 alpha 1) and 2 μM Ser/Thr 11 in 50 mM HEPES pH 7.5, 0.01% BRIJ-35, 10 mM MgCl2, 1 mM EGTA. After the 1 hour Kinase Reaction incubation, 5 uL of a 1:16 dilution of Development Reagent B is added. After 30 second of plate shake, the reaction plate was incubated for another 60 min at room temperature. Then the plate was read on a fluorescence plate reader (CLARIOstar, BMG Labtech, Germany) and data was analyzed using XLfit from IDBS. The dose response curve was curve fit to model number 205 (sigmoidal dose-response model).
# MV-4-11 cancer cell line = test: Western blot of treated cells; assay type: cell-based
# Method: For cell lines: All cells were plated (6-well) at 5×10^5 cells per well with medium containing 1% FBS overnight. And then Compound 29 was added in different concentrations with medium containing 1% FBS. After 16 hours, cells were lysed in M-per Mammalian Protein Extraction Reagent (78501, Thermo Fisher Scientific) containing protease and phosphatase inhibitors (88669, Thermo Fisher Pierce). Total protein concentration was measured using the Pierce BCA protein Assay Kit (#23227).
# Proteins were separated on SDS-PAGE and transferred to nitrocellulose membrane. Immunoblotting were performed using specific antibodies: phosphor-Stat1-pS727 (8826, Cell signaling), total-Stat1 (14994, Cell signaling), Phospho-Stat3 (Tyr705) (9131, Cell signaling), Stat3 (9139, Cell signaling), pSTAT5-pS726 (ab128896, abcam), stat5 (94205, cell signaling), YAP (14074, Cell signaling), CYR61(14479, Cell signaling), CTGF (ab6992, Abcam), c-Myc (13987, Cell signaling), Mcl-1 (94296, Cell signaling) and GAPDH (AM4300, Invitrogen). (FIG. 1A, FIG. 1B, FIG. 1C). MV-4-11 cancer cell line was treated with compound 29 at various concentrations (30 nM up to 10 μM) for 24 hours and 48 hours, respectively.
# CSNK2A1 (CK2 alpha 1), sequence (P68400 whole entry): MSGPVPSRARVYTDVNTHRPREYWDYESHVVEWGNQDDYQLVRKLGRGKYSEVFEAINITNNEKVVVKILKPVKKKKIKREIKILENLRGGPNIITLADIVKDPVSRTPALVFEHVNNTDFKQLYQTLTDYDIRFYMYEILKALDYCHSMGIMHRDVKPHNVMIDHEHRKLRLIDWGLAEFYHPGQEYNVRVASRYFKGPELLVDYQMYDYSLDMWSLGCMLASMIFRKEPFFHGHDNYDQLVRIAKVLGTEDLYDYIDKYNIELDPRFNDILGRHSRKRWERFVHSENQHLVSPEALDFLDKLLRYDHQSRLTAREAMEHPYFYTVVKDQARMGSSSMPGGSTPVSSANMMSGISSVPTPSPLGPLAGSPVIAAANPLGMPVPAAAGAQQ
structure (smiles),measurement,setting,value
"Nc1nccc2c(Br)cc3cc(C(=O)[O-])ccc3c12.[Na+] [Compound 29, Sodium 1-amino-5-bromobenzo[h]isoquinoline-8-carboxylate]",IC50,CSNK2A1 (CK2 alpha 1),< 300 nM
same,"level of p-STAT1(Ser727), p-STAT3(Tyr705), p-STAT5(Ser726)","MV-4-11 cancer cell line; MV-4-11, 30 nM up to 10 μM, 24 hours and 48 hours",dose-response down regulation
same,"level of YAP, CYR61, CTGF, C-MYC, and MCL-1","MV-4-11 cancer cell line; MV-4-11, 48 hours",down regulate
